According to paper PMC7213754 (Clinical cancer research : an official journal of the …, 2009):
Where “and” joins values, the source holds several entries; their conditions need not be identical. Equal values may be shown once. Entries after “also recorded” stand apart in the source; their conditions may differ.

How the values were obtained:
Pgp [1] = biological target: T1, Pgp (Homo sapiens, UniProt P08183); test: Rhodamine efflux from circulating CD56+ cells of patients
[2] = Vinorelbine pharmacokinetics in patients, alone and with tariquidar; format: in vivo, human; conditions: for effect of tariquidar on vinorelbine pharmacokinetics: tariquidar 150 mg before vinorelbine
[3] = Tariquidar pharmacokinetics in patients; format: in vivo, human; conditions: for concentration at 24 h / concentration at 48 h: intravenous, mean plasma concentration
Pgp [4] = biological target: T1, Pgp; test: 99mTc-sestamibi scanning at baseline and after tariquidar; format: in vivo
Pgp [5] = biological target: T1, Pgp; conditions: 150 mg tariquidar; cited from earlier work
[6] = system: multidrug-resistant human tumor cell lines; conditions: in vitro; cited from earlier work
Pgp [7] = conditions: cited from earlier work
[8] = cited from earlier work
[9] = cycle 2, 150 mg i.v. over 30 min, individual patients
[10] = vinorelbine after tariquidar (post), individual patients
[11] = vinorelbine after tariquidar, eight patients
[12] = vinorelbine alone (pre), individual patients
[13] = vinorelbine alone, eight patients

T1 sequence (P08183 whole entry): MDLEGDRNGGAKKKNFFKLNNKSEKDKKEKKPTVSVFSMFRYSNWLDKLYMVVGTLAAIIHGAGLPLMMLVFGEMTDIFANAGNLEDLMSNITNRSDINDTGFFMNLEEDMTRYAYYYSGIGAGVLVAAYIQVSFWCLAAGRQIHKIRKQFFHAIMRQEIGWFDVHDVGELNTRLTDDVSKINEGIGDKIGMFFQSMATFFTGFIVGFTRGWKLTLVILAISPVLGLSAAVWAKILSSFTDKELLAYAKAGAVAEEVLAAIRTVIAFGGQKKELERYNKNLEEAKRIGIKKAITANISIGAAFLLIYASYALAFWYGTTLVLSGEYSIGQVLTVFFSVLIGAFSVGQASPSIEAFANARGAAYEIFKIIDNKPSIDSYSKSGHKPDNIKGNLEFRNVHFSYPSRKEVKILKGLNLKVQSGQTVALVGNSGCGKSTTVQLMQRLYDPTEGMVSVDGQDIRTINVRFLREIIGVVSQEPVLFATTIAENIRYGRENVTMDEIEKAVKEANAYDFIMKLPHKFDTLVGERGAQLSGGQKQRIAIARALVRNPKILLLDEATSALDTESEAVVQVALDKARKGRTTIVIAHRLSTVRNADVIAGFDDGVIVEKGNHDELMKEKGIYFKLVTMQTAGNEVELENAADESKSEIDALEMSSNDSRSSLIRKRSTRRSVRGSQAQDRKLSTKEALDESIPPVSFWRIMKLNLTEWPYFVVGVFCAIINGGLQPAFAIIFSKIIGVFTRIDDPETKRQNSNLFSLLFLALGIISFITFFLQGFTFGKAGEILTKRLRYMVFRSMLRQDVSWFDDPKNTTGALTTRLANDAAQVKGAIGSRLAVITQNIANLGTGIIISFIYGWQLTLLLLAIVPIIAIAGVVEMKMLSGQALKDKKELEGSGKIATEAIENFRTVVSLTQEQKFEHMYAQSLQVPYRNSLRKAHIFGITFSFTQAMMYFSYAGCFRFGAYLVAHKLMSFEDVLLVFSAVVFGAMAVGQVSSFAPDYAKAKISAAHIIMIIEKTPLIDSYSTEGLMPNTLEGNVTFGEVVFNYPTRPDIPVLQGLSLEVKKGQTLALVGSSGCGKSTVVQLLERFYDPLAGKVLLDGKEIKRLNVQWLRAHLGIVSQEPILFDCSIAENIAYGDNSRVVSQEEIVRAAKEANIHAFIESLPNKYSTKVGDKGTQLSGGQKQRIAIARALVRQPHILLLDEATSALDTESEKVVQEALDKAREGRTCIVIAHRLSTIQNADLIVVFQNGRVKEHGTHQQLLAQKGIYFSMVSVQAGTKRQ

For `C/C=C/C[C@@H](C)C(=O)[C@H]1C(=O)N[C@@H](C(C)C)C(=O)N(C)CC(=O)N(C)[C@@H](CC(C)C)C(=O)N[C@@H](C(C)C)C(=O)N(C)[C@@H](CC(C)C)C(=O)N[C@@H](C)C(=O)N[C@H](C)C(=O)N(C)[C@@H](CC(C)C)C(=O)N(C)[C@@H](CC(C)C)C(=O)N(C)[C@@H](C(C)C)C(=O)N1C` [PSC833, valspodar], the “rhodamine efflux from CD56+ cells with exogenously added inhibitor” value (Pgp [1]; added exogenously to blood sample) was “completely blocked”.
For `COc1cc2c(cc1OC)CN(CCc1ccc(NC(=O)c3cc(OC)c(OC)cc3NC(=O)c3cnc4ccccc4c3)cc1)CC2` [tariquidar], the “effect of tariquidar on vinorelbine pharmacokinetics” value [2] was “no apparent effect of tariquidar on the disposition of vinorelbine; also recorded: did not affect the pharmacokinetics of vinorelbine”, the “effect of tariquidar on vinorelbine pharmacokinetics” value ([2]; listed as Tariquidar) was “no effects on vinorelbine pharmacokinetics” and the “difference in drug exposure between 2 patients” value ([3]; 150 mg tariquidar) was > 7 fold. For the same compound, the Clearance [3, 9] was 170 mL/min and 312 mL/min and 559 mL/min and 309 mL/min and 249 mL/min and 302 mL/min and 444 mL/min and 784 mL/min and 221 mL/min and 269 mL/min and 623 mL/min and 166 mL/min and 83 mL/min and 129 mL/min and 111 mL/min and 137 mL/min and 108 mL/min and 191 mL/min, the Cmax [3, 9] was 1,551 ng/mL and 1,317 ng/mL and 963 ng/mL and 1,362 ng/mL and 1,102 ng/mL and 582 ng/mL and 1,168 ng/mL and 516 ng/mL and 912 ng/mL and 911 ng/mL and 622 ng/mL and 5,793 ng/mL and 3,632 ng/mL and 1,266 ng/mL and 6,113 ng/mL and 4,628 ng/mL and 2,207 ng/mL and 1,008 ng/mL and the Half-life [3, 9] was 1630 min and 1990 min and 1050 min and 1530 min and 1660 min and 2630 min and 942 min and 852 min and 2530 min and 1430 min and 1150 min and 1970 min and 3790 min and 2660 min and 2700 min and 3040 min and 2150 min. The Vdss [3, 9] was 136 L and 343 L and 248 L and 206 L and 199 L and 661 L and 142 L and 348 L and 439 L and 553 L and 604 L and 82.3 L and 85.1 L and 447 L and 274 L and 234 L and 317 L and 247 L, the concentration at 24 h ([3]; human, plasma, 150 mg, cycle 1) was 119 ng/mL and the concentration at 24 h ([3]; human, plasma, 150 mg, cycle 2) was 121 ng/mL. For the same compound, the concentration at 48 h ([3]; human, plasma, 150 mg, cycle 1) was 79.4 ng/mL, the concentration at 48 h ([3]; human, plasma, 150 mg, cycle 2) was 69.5 ng/mL and the Clearance ([3]; human, plasma, iv, 150 mg, Clearance, median, cycle 2, 150 mg i.v. over 30 min, 18 patients) was 235 mL/min. For the same compound, the Cmax ([3]; human, plasma, iv, 150 mg, Cmax, median, cycle 2, 150 mg i.v. over 30 min, 18 patients) was 1220 ng/mL, the Half-life ([3]; human, plasma, iv, 150 mg, Half-life, median, cycle 2, 150 mg i.v. over 30 min, 18 patients) was 1980 min and the Vd ([3]; human, plasma, iv, 150 mg, Vdss, median, cycle 2, 150 mg i.v. over 30 min, 18 patients) was 261 L. The Clearance ([3]; human, plasma, iv, 150 mg, mean (±SD) clearance, 150 mg i.v.) was 287 ± 196 mL/min, the Half-life ([3]; human, plasma, iv, 150 mg, mean (±SD) terminal half-life, 150 mg i.v.) was 2020 ± 810 min and the “effect on liver 99mTc-sestamibi clearance” value (Pgp [4]; 150-mg dose) was “reduced liver 99mTc-sestamibi clearance”. For the same compound, the “difference in mean 99mTc-sestamibi AUC in heart, lungs and liver” value (Pgp [4]; baseline versus after tariquidar, all study patients) was “Large differences were noted in Pgp-expressing liver but not in the heart nor in the lungs”, the tolerability (in vivo) was “well-tolerated” and the “mean change of 99mTc-sestamibi accumulation and retention in the liver” value (Pgp [5]) was “+128%”. The “duration of action after removal of drug from the culture medium” value [6] was “at least 22 hours”, the “mode of inhibition of Pgp transport” value (Pgp [7]) was “noncompetitive” and the “transport substrate of Pgp” value (Pgp [7]) was “not a transport substrate of Pgp”. The “Pgp block by i.v. tariquidar compared with exogenous PSC833” value (Pgp [1]; 8, 24 and 48 h after 150 mg i.v.) was “as effective in blocking Pgp as an excess of PSC833 added exogenously”.
For `CCC1=C[C@@H]2CN(C1)Cc1c([nH]c3ccccc13)[C@@](C(=O)OC)(c1cc3c(cc1OC)N(C)[C@H]1[C@@](O)(C(=O)OC)[C@H](OC(C)=O)[C@]4(CC)C=CCN5CC[C@]31[C@@H]54)C2` [vinorelbine], the “Clearance Post” value [2, 10] was 518 mL/min/m^2 and 536 mL/min/m^2 and 555 mL/min/m^2 and 1,097 mL/min/m^2 and 589 mL/min/m^2 and 617 mL/min/m^2 and 477 mL/min/m^2 and 462 mL/min/m^2, the “t1/2 Post” value [2, 10] was 23 h and 51 h and 21 h and 43 h and 36 h and 58 h and the “Clearance Post, median and range” value [2, 11] was 546 mL/min/m^2 and 462-1,097 mL/min/m^2. The “t1/2 Post, median and range” value [2, 11] was 21 to 58 h, the “AUC0-∞ Pre” value ([2]; vinorelbine alone (pre), i.v. bolus 20 or 22.5 mg/m^2, individual patients) was 844 ng·h/mL and 635 ng·h/mL and 511 ng·h/mL and 838 ng·h/mL and 603 ng·h/mL and 758 ng·h/mL and 756 ng·h/mL and the “Clearance Pre” value [2, 12] was 600 mL/min/m^2 and 444 mL/min/m^2 and 591 mL/min/m^2 and 652 mL/min/m^2 and 398 mL/min/m^2 and 553 mL/min/m^2 and 495 mL/min/m^2 and 496 mL/min/m^2. For the same compound, the “t1/2 Pre” value [2, 12] was 22 h and 19 h and 28 h and 48 h and 21 h and 37 h and 36 h, the “AUC0-∞ Pre, median and range” value [2, 13] was 511 to 844 ng·h/mL and the “Clearance Pre, median and range” value [2, 13] was 524 mL/min/m^2 and 398-652 mL/min/m^2. The “t1/2 Pre, median and range” value [2, 13] was 18 to 48 h, the “effect of vinorelbine on tariquidar pharmacokinetics” value ([3]; human, in vivo) was “no effect on tariquidar pharmacokinetics” and the “maximum tolerated dose of vinorelbine in the combination” value (days 1 and 8 every 21 d with tariquidar 150 mg, without filgrastim) was 20 mg/m^2. For the same compound, the “dose of vinorelbine felt to be tolerable with zosuquidar” value ([8]; i.v. weekly for 3 weeks every 28 days) was 22.5 mg/m^2.
In the case of `O[C@@H](COc1cccc2ncccc12)CN1CCN([C@@H]2c3ccccc3[C@@H]3[C@H](c4ccccc42)C3(F)F)CC1` [zosuquidar], the “effect of zosuquidar on vinorelbine clearance” value ([8]; phase I study) is listed as “may inhibit vinorelbine clearance to a modest degree”.
